# Source: patent publication US11021470B2, “2-substituted quinazoline compounds comprising a substituted heterocyclic group and methods of use thereof” (Araxes Pharma LLC, priority 2015, dated 2021)
# Target: T1, KRAS G12C 1-169, his-tagged protein, GDP-loaded (Homo sapiens, UniProt P01116, G12C)
# T1 construct: KRAS G12C 1-169, his-tagged protein, GDP-loaded
# Assay: KRAS G12C covalent binding (% modification) by mass spectrometry, ten or three minute incubation
# Details: covalent binding to KRAS G12C after a ten minute incubation period
# In short: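 GDP-loaded protein in 20 mM Hepes, 150 mM NaCl, 1 mM MgCl2 was incubated with compound (final 100, 30 or 10 μM; 2% DMSO) at room temperature, then quenched with formic acid. Intact-protein LC-MS with charge-envelope deconvolution gave masses and intensities of modified and unmodified species.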
row,Compound,Binding %
1,"C=CC(=O)N1C[C@@H](C)N(c2nc(N3CC(N(C)C)C3)nc3c(F)c(-c4c(O)cccc4F)c(Cl)cc23)C[C@H]1C [Compound 80, 1-((2R,5R)-4-(6-chloro-2-(3-(dimethylamino)azetidin-1-yl)-8-fluoro-7-(2-fluoro-6-hydroxyphenyl)quinazolin-4-yl)-2,5-dimethylpiperazin-1-yl)prop-2-en-1-one]",+ (+ indicates binding activity greater than 0% and up to 50%)
2,"C=CC(=O)N1C[C@H](C)N(c2nc(N3CC(N(C)C)C3)nc3c(F)c(-c4c(O)cccc4F)c(Cl)cc23)C[C@H]1C (atropisomer, axis not shown) [Compound 53, 1-((2R,5S)-4-((R)-6-chloro-2-(3-(dimethylamino)azetidin-1-yl)-8-fluoro-7-(2-fluoro-6-hydroxyphenyl)quinazolin-4-yl)-2,5-dimethylpiperazin-1-yl)prop-2-en-1-one]",++ (++ indicates binding activity from 50 to 90%)
3,"C=CC(=O)N1C[C@H](C)N(c2nc(N3CC(N(C)C)C3)nc3c(F)c(-c4c(C)ccc5[nH]ncc45)c(Cl)cc23)C[C@H]1C [Compound 54, 1-((2R,5S)-4-(6-chloro-2-(3-(dimethylamino)azetidin-1-yl)-8-fluoro-7-(5-methyl-1H-indazol-4-yl)quinazolin-4-yl)-2,5-dimethylpiperazin-1-yl)prop-2-en-1-one]",+++ (+++ indicates binding activity greater than 90%)

# Same assay, conditions: covalent binding to KRAS G12C, % modification after a three minute incubation period
row,Compound,Binding %
1,"C=CC(=O)N1C[C@H](C)N(c2nc(OCCc3cn(C(C)C)cn3)nc3c(F)c(-c4c(O)cccc4F)c(Cl)cc23)C[C@H]1C [Compound 302, 1-((2R,5S)-4-(6-chloro-8-fluoro-7-(2-fluoro-6-hydroxyphenyl)-2-(2-(1-isopropyl-1H-imidazol-4-yl)ethoxy)quinazolin-4-yl)-2,5-dimethylpiperazin-1-yl)prop-2-en-1-one]",+++ (+++ indicates binding activity greater than 90%)
2,"C=CC(=O)N1C[C@H](C)N(c2nc(OCC(C)(C)N)nc3c(F)c(-c4c(O)cccc4F)c(Cl)cc23)C[C@H]1C [Compound 274, 1-((2R,5S)-4-(2-(2-amino-2-methylpropoxy)-6-chloro-8-fluoro-7-(2-fluoro-6-hydroxyphenyl)quinazolin-4-yl)-2,5-dimethylpiperazin-1-yl)prop-2-en-1-one]",+ (+ indicates binding activity greater than 0% and up to 50%)
3,"C=CC(=O)N1C[C@H](C)N(c2nc(OCCN3CC(F)(F)C3)nc3c(F)c(-c4c(O)cccc4F)c(Cl)cc23)C[C@H]1C (atropisomer, axis not shown) [Compound 90, 1-((2R,5S)-4-(6-chloro-2-(2-(3,3-difluoroazetidin-1-yl)ethoxy)-8-fluoro-7-((S)-2-fluoro-6-hydroxyphenyl)quinazolin-4-yl)-2,5-dimethylpiperazin-1-yl)prop-2-en-1-one]",++ (++ indicates binding activity from 50 to 90%)
4,"C=CC(=O)N1C[C@H](C)N(c2nc(N3CC(N(C)C)C3)nc3c(F)c(-c4c(C)ccc5[nH]nc(CO)c45)c(Cl)cc23)C[C@H]1C [Compound 299, 1-((2R,5S)-4-(6-chloro-2-(3-(dimethylamino)azetidin-1-yl)-8-fluoro-7-(3-(hydroxymethyl)-5-methyl-1H-indazol-4-yl)quinazolin-4-yl)-2,5-dimethylpiperazin-1-yl)prop-2-en-1-one]",++ (++ indicates binding activity from 50 to 90%)
5,"C=CC(=O)N1C[C@H](C)N(c2nc(OCCn3ccnc3C#N)nc3c(F)c(-c4c(O)cccc4F)c(Cl)cc23)C[C@H]1C (atropisomer, axis not shown) [Compound 278, 1-(2-(4-((2S,5R)-4-acryloyl-2,5-dimethylpiperazin-1-yl)-6-chloro-8-fluoro-7-((S)-2-fluoro-6-hydroxyphenyl)quinazolin-2-yloxy)ethyl)-1H-imidazole-2-carbonitrile]",++ (++ indicates binding activity from 50 to 90%)
6,"C=CC(=O)N1C[C@@H](C)N(c2nc(N3CC(N(C)C)C3)nc3c(F)c(-c4c(O)cccc4F)c(Cl)cc23)C[C@H]1C [Compound 86, 1-((2R,5R)-4-(6-chloro-2-(3-(dimethylamino)azetidin-1-yl)-8-fluoro-7-(2-fluoro-6-hydroxyphenyl)quinazolin-4-yl)-2,5-dimethylpiperazin-1-yl)prop-2-en-1-one]",+ (+ indicates binding activity greater than 0% and up to 50%)
7,"C=CC(=O)N1C[C@H](C)N(c2nc(OCCc3ncc(C)n3C)nc3c(F)c(-c4c(O)cccc4F)c(Cl)cc23)C[C@H]1C (atropisomer, axis not shown) [Compound 289, 1-((2R,5S)-4-((S)-6-chloro-2-(2-(1,5-dimethyl-1H-imidazol-2-yl)ethoxy)-8-fluoro-7-(2-fluoro-6-hydroxyphenyl)quinazolin-4-yl)-2,5-dimethylpiperazin-1-yl)prop-2-en-1-one]",+++ (+++ indicates binding activity greater than 90%)
8,"C=CC(=O)N1C[C@H](C)N(c2nc(OCCn3ccccc3=O)nc3c(F)c(-c4c(O)cccc4F)c(Cl)cc23)C[C@H]1C (atropisomer, axis not shown) [Compound 265, 1-(2-(4-((2S,5R)-4-acryloyl-2,5-dimethylpiperazin-1-yl)-6-chloro-8-fluoro-7-((S)-2-fluoro-6-hydroxyphenyl)quinazolin-2-yloxy)ethyl)pyridin-2(1H)-one]",+++ (+++ indicates binding activity greater than 90%)
9,"C=CC(=O)N1C[C@H](C)N(c2nc(OCCn3cnnc3)nc3c(F)c(-c4c(O)cccc4F)c(Cl)cc23)C[C@H]1C (atropisomer, axis not shown) [Compound 280, 1-((2R,5S)-4-(2-(2-(4H-1,2,4-triazol-4-yl)ethoxy)-6-chloro-8-fluoro-7-((S)-2-fluoro-6-hydroxyphenyl)quinazolin-4-yl)-2,5-dimethylpiperazin-1-yl)prop-2-en-1-one]",+++ (+++ indicates binding activity greater than 90%)
10,"C=CC(=O)N1C[C@H](C)N(c2nc(N3CC(N(C)C)C3)nc3c(F)c(-c4c(F)ccc(Cl)c4O)c(Cl)cc23)C[C@H]1C [Compound 260, 1-((2R,5S)-4-(6-chloro-7-(3-chloro-6-fluoro-2-hydroxyphenyl)-2-(3-(dimethylamino)azetidin-1-yl)-8-fluoroquinazolin-4-yl)-2,5-dimethylpiperazin-1-yl)prop-2-en-1-one]",++ (++ indicates binding activity from 50 to 90%)
11,"C=CC(=O)N1C[C@H](C)N(c2nc(N3CC(N(C)C)C3)nc3c(F)c(-c4c(C)ccc5c(C)n[nH]c45)c(Cl)cc23)C[C@H]1C [Compound 246, 1-((2R,5S)-4-(6-chloro-7-(3,6-dimethyl-1H-indazol-7-yl)-2-(3-(dimethylamino)azetidin-1-yl)-8-fluoroquinazolin-4-yl)-2,5-dimethylpiperazin-1-yl)prop-2-en-1-one]",+ (+ indicates binding activity greater than 0% and up to 50%)
12,"C=CC(=O)N1C[C@H](C)N(c2nc(N3CC(N(C)C)C3)nc3c(F)c(-c4c[nH]c5cccc(C)c45)c(Cl)cc23)C[C@H]1C [Compound 291, 1-((2R,5S)-4-(6-chloro-2-(3-(dimethylamino)azetidin-1-yl)-8-fluoro-7-(4-methyl-1H-indol-3-yl)quinazolin-4-yl)-2,5-dimethylpiperazin-1-yl)prop-2-en-1-one]",+ (+ indicates binding activity greater than 0% and up to 50%)
